Measurements: patent US11518764B2, “Substituted heteroaryls as inhibitors of the BCL6 BTB domain protein-protein interaction” (Ontario Institute for Cancer Research (OICR), priority 2018, dated 2022)
Where two headings read alike, the source gives them in different places.

Tests used:
[1] = target: BCL6 BTB domain (Homo sapiens (Human), UniProt P41182); test: Surface plasmon resonance (SPR) assay; assay type: binding; conditions: BCL6 BTB domain captured on SA chip, single cycle kinetics
[2] = system: BCL6 reporter construct (3xBCL6-TK-Luc) in SuDHL4 cells; test: Cell-based luciferase assay
How it was run: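 SuDHL4 cells stably carrying a 3×BCL6-site TK-promoter firefly luciferase reporter, seeded at 15,000 cells/well, were dosed over a 10-point range (top 10 uM) and grown two days at 37 °C, 5% CO2. Luminescence then read after adding neolite reagent at room temperature.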

[3] = system: Karpas422 cells; test: Tumor cell growth inhibition assay; assay type: cell-based
How it was run: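 Karpas422 cells (2,000/well) in Alpha-MEM with 10% FBS dosed across 10 concentrations (top 5 uM) and grown six days at 37° C., 5% CO2. Viability read as ATPlite luminescence.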

[4] = Homo sapiens, SU-DHL-4, 48 h, read-out: Luciferase-Assay EC50, uM), SuDHL4-3xBCL6-TK-Luc cells, two days, high dose 10 uM
[5] = Homo sapiens, KARPAS-422, 144 h, read-out: Tumor Growth Inhibition in Karpas-422 (IC50, uM), Karpas422 cells, six days, ATPlite
[6] = read-out: Luciferase-Assay EC50, SuDHL4-3xBCL6-TK-Luc cells, two days, high dose 10 uM
[7] = read-out: Tumor Growth Inhibition in Karpas-422 (IC50), Karpas422 cells, six days, ATPlite

SMILES | Kd [1] | EC50 [2, 4] | IC50 [3, 5] | also measured
CN1C2CCC1CN(c1cc(NC(=O)Cn3cc(-c4cc(F)c(O)c(C(N)=O)c4)c4c(=O)n(C)cnc43)c(Cl)cn1)C2 [Compound I-283] | 16.7 nM | 0.222 µM | 0.282 µM | –
CO[C@@H]1CN(c2cc(NC(=O)Cn3cc(-c4cc(Cl)c(O)c(C(N)=O)c4)c4c(=O)n(C)c(C(F)(F)F)nc43)c(Cl)c(F)n2)C[C@@H]1F [Compound I-388] | 528 nM | 1.51 µM | 0.394 µM | –
Cn1cnc2c(c(-c3cc(Cl)c(O)c(C(N)=O)c3)cn2CC(=O)Nc2cc(N3CCOC(C(F)(F)F)C3)ncc2Cl)c1=O (stereo not drawn) [Compound I-256] | 211 nM | – | – | EC50 [2, 6]: 0.509 µM; IC50 [3, 7]: 0.274 µM
Cn1cnc2c(c(-c3cc(Cl)c(O)c(C(N)=O)c3)cn2CC(=O)Nc2cc(N3CC4CC3CO4)ncc2Cl)c1=O (stereo not drawn) [Compound I-154] | 33.9 nM | 0.469 µM | 0.559 µM | –
CO[C@H]1CN(c2cc(NC(=O)Cn3cc(-c4cc(Cl)c(O)c(C(N)=O)c4)c4c(=O)n(C)c(C(F)(F)F)nc43)c(Cl)c(F)n2)C[C@H]1F [Compound I-389] | 286 nM | 2.01 µM | 1.46 µM | –
C[C@H]1CNCCN1c1cc(NC(=O)Cn2cc(-c3cc(Cl)c(O)c(C(N)=O)c3)c3c(=O)n(C)cnc32)c(Cl)cn1 [Compound I-342] | 11.3 nM | 0.312 µM | 0.27 µM | –
Cc1nc2c(c(-c3cc(C(N)=O)c(O)c(F)c3F)cn2CC(=O)Nc2cc(N3CCN(C4COC4)C[C@@H]3C)nc(F)c2Cl)c(=O)n1C [Compound I-429] | 10.9 nM | 0.162 µM | 0.154 µM | –
COc1cc(-c2cn(CC(=O)Nc3cc(N4CCOC[C@@H]4C)ncc3Cl)c3nc(C)n(C)c(=O)c23)cc(C(N)=O)c1O [Compound I-122] | 6 nM | 0.119 µM | 0.078 µM | –
CN(C)C1CN(c2cc(NC(=O)Cn3cc(-c4cc(C(N)=O)c(O)c(F)c4F)c4c(=O)n(C)cnc43)c(Cl)cn2)C1 [Compound I-326] | 64.5 nM | 2.35 µM | 2 µM | –
CO[C@@H]1CN(c2cc(NC(=O)Cn3cc(-c4cc(Cl)c(O)c(C(N)=O)c4)c4c(=O)n(C)c(C(F)(F)F)nc43)c(Cl)cn2)C[C@@H]1F [Compound I-386] | 153 nM | 1.01 µM | 0.772 µM | –
COc1ncc(Cl)c(NC(=O)Cn2cc(-c3cc(Cl)c(O)c(C(N)=O)c3)c3c(=O)n(C)c(C)nc32)c1F [Compound I-382] | 342 nM | 3.1 µM | 10 µM | –
Cn1cnc2c(c(-c3cc(C(N)=O)c(O)cn3)cn2CC(=O)Nc2cc(N3CCOCC3)ncc2Cl)c1=O [Compound I-131, 2-(7-(2-((5-chloro-2-morpholinopyridin-4-yl)amino)-2-oxoethyl)-3-methyl-4-oxo-4,7-dihydro-3H-pyrrolo[2,3-d]pyrimidin-5-yl)-5-hydroxyisonicotinamide] | 8000 nM | – | – | EC50 ([2]; SuDHL4-3xBCL6-TK-Luc cells, two days, high dose 10 uM, read-out: Luciferase-Assay EC50): > 10 µM; IC50 ([3]; Karpas422 cells, six days, ATPlite, read-out: Tumor Growth Inhibition in Karpas-422 (IC50)): > 10 µM
COc1c(O)c(C(N)=O)cc(-c2cn(CC(=O)Nc3cc(N4CCN(C)CC4)ncc3Cl)c3ncn(C)c(=O)c23)c1F [Compound I-189] | 143 nM | 1.69 µM | 2.19 µM | –
COCCN1CCN(c2cc(NC(=O)Cn3cc(-c4cc(Cl)c(O)c(C(N)=O)c4)c4c(=O)n(C)cnc43)c(Cl)c(F)n2)[C@@H](C)C1 [Compound I-447] | 9.02 nM | 0.113 µM | 0.0709 µM | –
C[C@H]1COCCN1c1cc(NC(=O)Cn2cc(-c3cc(F)c(O)c(C(N)=O)c3)c3c(=O)n(C)c(C(F)(F)F)nc32)c(Cl)cn1 [Compound I-234] | 48.8 nM | 0.441 µM | 0.255 µM | –
C[C@H]1COCCN1c1cc(NC(=O)Cn2cc(-c3cc(Cl)c(O)c(C(N)=O)c3)c3c(=O)[nH]cnc32)c(Cl)cn1 [Compound I-145] | 6.09 nM | 0.303 µM | 0.551 µM | –
COC[C@H]1COCCN1c1cc(NC(=O)Cn2cc(-c3cc(Cl)c(O)c(C(N)=O)c3)c3c(=O)n(C)cnc32)c(Cl)cn1 [Compound I-151] | 10.6 nM | 0.168 µM | 0.144 µM | –
C[C@H]1CN(C2COC2)CCN1c1cc(NC(=O)Cn2cc(-c3cc(Cl)c(O)c(C(N)=O)c3)c3c(=O)n(C)cnc32)c(Cl)c(F)n1 [Compound I-413] | 6.15 nM | 0.06 µM | 0.0822 µM | –
C[C@H]1CN(C)C[C@H](C)N1c1cc(NC(=O)Cn2cc(-c3cc(C(N)=O)c(O)c(F)c3F)c3c(=O)n(C)cnc32)c(Cl)c(F)n1 [Compound I-487] | 122 nM | 1.29 µM | 1.8 µM | –

SMILES | Kd [1] | EC50 [2, 4] | IC50 [3, 5] | also measured
Cc1nc2c(c(-c3cc(F)c(O)c(C(N)=O)c3)cn2CC(=O)Nc2cc(N3CCN(C)C[C@@H]3C)ncc2Cl)c(=O)n1C [Compound I-207] | 4.45 nM | 0.0429 µM | 0.0703 µM | –
Cn1cnc2c(c(-c3cc(Cl)c(O)c(C(N)=O)c3)cn2CC(=O)Nc2cc(N3CCCC3)nc(F)c2Cl)c1=O [Compound I-418] | 22.1 nM | 0.663 µM | 0.303 µM | –
C[C@H]1CN(CCC(F)(F)F)CCN1c1cc(NC(=O)Cn2cc(-c3cc(C(N)=O)c(O)c(F)c3F)c3c(=O)n(C)cnc32)c(Cl)cn1 [Compound I-453] | 54.3 nM | 0.41 µM | 0.16 µM | –
Cn1cnc2c(c(-c3cc(Cl)c(O)c(C(N)=O)c3)cn2CC(=O)Nc2cc(N3CCOC(C(F)(F)F)C3)ncc2Cl)c1=O (stereo not drawn) [Compound I-258] | 100 nM | – | – | EC50 [2, 6]: 0.549 µM; IC50 [3, 7]: 0.491 µM
Cn1cnc2c(c(-c3cc(Cl)c(O)c(C(N)=O)c3)cn2CC(=O)Nc2cc(N3CCOC(C(F)(F)F)C3)ncc2Cl)c1=O (stereo not drawn) [Compound I-69] | 72 nM | – | – | EC50 [2, 6]: 0.269 µM; IC50 [3, 7]: 0.22 µM
Cn1cnc2c(c(-c3cc(Cl)c(O)c(C(N)=O)c3)cn2CC(=O)Nc2cc(N3C4COCC5CC543)ncc2Cl)c1=O (stereo not drawn) [Compound I-281] | 60.8 nM | – | – | EC50 ([2]; Homo sapiens, SU-DHL-4, 48 h, SuDHL4-3xBCL6-TK-Luc cells, two days, high dose 10 uM, read-out: Luciferase-Assay EC50): 2.88 µM; IC50 ([3]; Homo sapiens, KARPAS-422, 144 h, Karpas422 cells, six days, ATPlite, read-out: Tumor Growth Inhibition in Karpas-422 (IC50)): 2.18 µM
CCN1CCN(c2cc(NC(=O)Cn3cc(-c4cc(C(N)=O)c(O)c(F)c4F)c4c(=O)n(C)c(C)nc43)c(Cl)cn2)[C@@H](C)C1 [Compound I-435] | 48.9 nM | 0.847 µM | 0.415 µM | –
C[C@H]1CN(CC(CO)CO)CCN1c1cc(NC(=O)Cn2cc(-c3cc(C(N)=O)c(O)c(F)c3F)c3c(=O)n(C)cnc32)c(Cl)c(F)n1 [Compound I-463, (S)-5-(7-(2-((3-chloro-2-fluoro-6-(4-(3-hydroxy-2-(hydroxymethyl)propyl)-2-methylpiperazin-1-yl)pyridin-4-yl)amino)-2-oxoethyl)-3-methyl-4-oxo-4,7-dihydro-3H-pyrrolo[2,3-d]pyrimidin-5-yl)-3,4-difluoro-2-hydroxybenzamide] | 8.56 nM | 3.53 µM | 1.28 µM | –
Cn1cnc2c(c(-c3cc(C(N)=O)c(O)cc3F)cn2CC(=O)Nc2cc(N3C[C@H]4CCO[C@H]4C3)ncc2Cl)c1=O [Compound I-163] | 50.5 nM | 0.572 µM | 0.93 µM | –
C[C@H]1CN(CC2CC2)CCN1c1cc(NC(=O)Cn2cc(-c3cc(F)c(O)c(C(N)=O)c3)c3c(=O)n(C)cnc32)c(Cl)c(F)n1 [Compound I-445] | 7.32 nM | 0.0854 µM | 0.0622 µM | –
Cn1cnc2c(c(-c3cc(C(N)=O)c(O)cc3F)cn2CC(=O)Nc2cc(N3CC4CCC(C3)O4)ncc2Cl)c1=O [Compound I-162] | 84.7 nM | 0.676 µM | 0.643 µM | –
Cn1cnc2c(c(-c3cc(Cl)c(O)c(C(N)=O)c3)cn2CC(=O)Nc2cn3ccnc3cc2Cl)c1=O [Compound I-173] | 200 nM | 44.6 µM | 5.72 µM | –
C[C@H]1CN(C)CCN1c1cc(NC(=O)Cn2cc(-c3cc(Cl)c(O)c(C(N)=O)c3)c3c(=O)n(C)c(C(F)(F)F)nc32)c(Cl)c(F)n1 [Compound I-368] | 83.5 nM | 0.369 µM | 0.407 µM | –
C[C@H]1CN(C2COC2)CCN1c1cc(NC(=O)Cn2cc(-c3cc(F)c(O)c(C(N)=O)c3)c3c(=O)n(C)cnc32)c(Cl)cn1 [Compound I-372] | 7.41 nM | 0.233 µM | 0.267 µM | –
Cn1cnc2c(c(-c3cc(C(N)=O)c(O)c(F)c3F)cn2CC(=O)Nc2cc(N3CC4COCC4C3)ncc2Cl)c1=O (stereo not drawn) [Compound I-299] | 31.4 nM | 0.521 µM | 0.685 µM | –
Cn1cnc2c(c(-c3cc(F)c(O)c(C(N)=O)c3)cn2CC(=O)Nc2cc(N3C[C@H]4CC[C@@H](C3)N4CC(F)(F)F)ncc2Cl)c1=O [Compound I-476] | 13.7 nM | 0.159 µM | 0.118 µM | –
CN1CCOC2CN(c3cc(NC(=O)Cn4cc(-c5cc(Cl)c(O)c(C(N)=O)c5)c5c(=O)n(C)c(C(F)(F)F)nc54)c(Cl)cn3)CC21 (stereo not drawn) [Compound I-395] | 48.3 nM | 0.168 µM | 0.669 µM | –
Cn1c(CCc2ccc(F)cc2)nc2c(c(-c3cc(Cl)c(O)c(C(N)=O)c3)cn2CC(=O)Nc2cc(N3CCOCC3)ncc2Cl)c1=O [Compound I-127] | 201 nM | 0.756 µM | 0.276 µM | –
